Measured values from the supplement of paper PMC11451515.

Tested on: P12-Ichikawa
Assay: cell viability relative to DMSO control; higher = less cytotoxic
Conditions: 48 h
Outline: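 Library compounds in DMSO were pin-dosed into 1536-well plates (5 μl) holding NOMO1 or SEM (500 cells/well) or P12-Ichikawa (1000 cells/well) leukemia cells, across an 11-point threefold series of 47 μM to 0.79 nM. Each cell line had been adapted for at least four passages in each medium. CellTiter-Glo One luminescence was read after 48 h at 37°C. Viability is the per-plate percentage relative to DMSO wells, with cell-free wells as background.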

[1] = HPLM + 10% dialyzed FBS, 0.000781 µM
[2] = HPLM + 10% dialyzed FBS, 0.00234 µM
[3] = HPLM + 10% dialyzed FBS, 0.00702 µM
[4] = HPLM + 10% dialyzed FBS, 0.0211 µM
[5] = HPLM + 10% dialyzed FBS, 0.0632 µM
[6] = HPLM + 10% dialyzed FBS, 0.19 µM
[7] = HPLM + 10% dialyzed FBS, 0.569 µM
[8] = HPLM + 10% dialyzed FBS, 1.71 µM
[9] = HPLM + 10% dialyzed FBS, 5.12 µM
[10] = HPLM + 10% dialyzed FBS, 15.4 µM
[11] = HPLM + 10% dialyzed FBS, 46.1 µM
[12] = RPMI 5 mM glucose + 10% FBS, 0.000781 µM
[13] = RPMI 5 mM glucose + 10% FBS, 0.00234 µM
[14] = RPMI 5 mM glucose + 10% FBS, 0.00702 µM
[15] = RPMI 5 mM glucose + 10% FBS, 0.0211 µM
[16] = RPMI 5 mM glucose + 10% FBS, 0.0632 µM
[17] = RPMI 5 mM glucose + 10% FBS, 0.19 µM
[18] = RPMI 5 mM glucose + 10% FBS, 0.569 µM
[19] = RPMI 5 mM glucose + 10% FBS, 1.71 µM
[20] = RPMI 5 mM glucose + 10% FBS, 5.12 µM
[21] = RPMI 5 mM glucose + 10% FBS, 15.4 µM
[22] = RPMI 5 mM glucose + 10% FBS, 46.1 µM
[23] = RPMI 5 mM glucose + 10% dialyzed FBS, 0.000781 µM
[24] = RPMI 5 mM glucose + 10% dialyzed FBS, 0.00234 µM
[25] = RPMI 5 mM glucose + 10% dialyzed FBS, 0.00702 µM
[26] = RPMI 5 mM glucose + 10% dialyzed FBS, 0.0211 µM
[27] = RPMI 5 mM glucose + 10% dialyzed FBS, 0.0632 µM
[28] = RPMI 5 mM glucose + 10% dialyzed FBS, 0.19 µM
[29] = RPMI 5 mM glucose + 10% dialyzed FBS, 0.569 µM
[30] = RPMI 5 mM glucose + 10% dialyzed FBS, 1.71 µM
[31] = RPMI 5 mM glucose + 10% dialyzed FBS, 5.12 µM
[32] = RPMI 5 mM glucose + 10% dialyzed FBS, 15.4 µM
[33] = RPMI 5 mM glucose + 10% dialyzed FBS, 46.1 µM

With `CC(C)(C)c1cc(C(=O)O)c(NC(=O)Nc2ccc3[nH]ncc3c2)s1` the cell viability [1] was 93.9%, the cell viability [2] was 102% and the cell viability [3] was 88.8%. It also gave a cell viability [4] of 97.4%, a cell viability [5] of 91.7% and a cell viability [6] of 91.5%. It also gave a cell viability [7] of 85.9%, a cell viability [8] of 89.6% and a cell viability [9] of 89.9%. The cell viability [10] was 85.5%, the cell viability [11] was 80.6% and the cell viability [12] was 92.9%. It also gave a cell viability [13] of 90.5%, a cell viability [14] of 92.4% and a cell viability [15] of 97.8%. It also gave a cell viability [16] of 91.4%, a cell viability [17] of 98.4% and a cell viability [18] of 87.9%. It also gave a cell viability [19] of 79.6%, a cell viability [20] of 88.2% and a cell viability [21] of 84.7%. The cell viability [22] was 73.1%, the cell viability [23] was 93.5% and the cell viability [24] was 96.7%. It also gave a cell viability [25] of 93%, a cell viability [26] of 97.8% and a cell viability [27] of 97.2%. It also gave a cell viability [28] of 88.8%, a cell viability [29] of 90% and a cell viability [30] of 86.2%. For the same compound, the cell viability [31] was 87.8%, the cell viability [32] was 87.3% and the cell viability [33] was 91%.

For `Cc1ncc([N+](=O)[O-])n1CCO`, the cell viability [1] was 116%, the cell viability [2] was 121% and the cell viability [3] was 126%. The cell viability [4] was 125%, the cell viability [5] was 118% and the cell viability [6] was 123%. For the same compound, the cell viability [7] was 120%, the cell viability [8] was 132% and the cell viability [9] was 124%. For the same compound, the cell viability [10] was 110%, the cell viability [11] was 123% and the cell viability [12] was 106%. For the same compound, the cell viability [13] was 115%, the cell viability [14] was 123% and the cell viability [15] was 127%. The cell viability [16] was 112%, the cell viability [17] was 112% and the cell viability [18] was 127%. For the same compound, the cell viability [19] was 124%, the cell viability [20] was 123% and the cell viability [21] was 116%. For the same compound, the cell viability [22] was 120%, the cell viability [23] was 121% and the cell viability [24] was 129%. It also gave a cell viability [25] of 122%, a cell viability [26] of 129% and a cell viability [27] of 135%. It also gave a cell viability [28] of 135%, a cell viability [29] of 127% and a cell viability [30] of 125%. It also gave a cell viability [31] of 131%, a cell viability [32] of 129% and a cell viability [33] of 128%.

For `C[C@@H]1CC[C@@]2(OC1)OC1CC3C4CC=C5CC(O)CCC5(C)C4CCC3(C)C1[C@@H]2C` (stereo partly drawn), the cell viability [1] was 101%, the cell viability [2] was 105% and the cell viability [3] was 97%. For the same compound, the cell viability [4] was 104%, the cell viability [5] was 107% and the cell viability [6] was 106%. For the same compound, the cell viability [7] was 112%, the cell viability [8] was 106% and the cell viability [9] was 110%. It also gave a cell viability [10] of 25.8%, a cell viability [11] of 6.49% and a cell viability [12] of 98.9%. The cell viability [13] was 99.9%, the cell viability [14] was 102% and the cell viability [15] was 106%. For the same compound, the cell viability [16] was 106%, the cell viability [17] was 99.3% and the cell viability [18] was 104%. For the same compound, the cell viability [19] was 108%, the cell viability [20] was 118% and the cell viability [21] was 86.8%. For the same compound, the cell viability [22] was 36.4%, the cell viability [23] was 92% and the cell viability [24] was 96.3%. It also gave a cell viability [25] of 92.3%, a cell viability [26] of 99.3% and a cell viability [27] of 97%. It also gave a cell viability [28] of 106%, a cell viability [29] of 105% and a cell viability [30] of 105%. The cell viability [31] was 119%, the cell viability [32] was 73.8% and the cell viability [33] was 16.8%.

Compound `C=CCn1c(=O)c2cnc(Nc3ccc(N4CCN(C)CC4)cc3)nc2n1-c1cccc(C(C)(C)O)n1` has a cell viability [1] of 120%, a cell viability [2] of 116% and a cell viability [3] of 121%. It also gave a cell viability [4] of 125%, a cell viability [5] of 110% and a cell viability [6] of 111%. The cell viability [7] was 99.3%, the cell viability [8] was 43.7% and the cell viability [9] was 17%. For the same compound, the cell viability [10] was 15.9% and the cell viability [11] was 17.4%.

In the case of `CN(C)CC/C=C1/c2ccccc2COc2ccc(CC(=O)O)cc21`, the cell viability [1] is reported as 118%, the cell viability [2] is reported as 112% and the cell viability [3] is reported as 116%. The cell viability [4] was 120%, the cell viability [5] was 125% and the cell viability [6] was 125%. The cell viability [7] was 122%, the cell viability [8] was 126% and the cell viability [9] was 129%. The cell viability [10] was 125%, the cell viability [11] was 131% and the cell viability [23] was 122%. The cell viability [24] was 114%, the cell viability [25] was 122% and the cell viability [26] was 141%. For the same compound, the cell viability [27] was 140%, the cell viability [28] was 136% and the cell viability [29] was 146%. It also gave a cell viability [30] of 135%, a cell viability [31] of 134% and a cell viability [32] of 136%. The cell viability [33] was 138%.

`O=[N+]([O-])c1cnc(Sc2nnc(O)n2-c2ccc3c(c2)OCCO3)s1` was tested, and the cell viability [1] was 87.4%, the cell viability [2] was 86.1% and the cell viability [3] was 87.7%. The cell viability [4] was 91%, the cell viability [5] was 91.8% and the cell viability [6] was 93.4%. It also gave a cell viability [7] of 94.2%, a cell viability [8] of 97% and a cell viability [9] of 87.8%. It also gave a cell viability [10] of 45.8%, a cell viability [11] of 2.64% and a cell viability [12] of 86.5%. For the same compound, the cell viability [13] was 84.3%, the cell viability [14] was 88% and the cell viability [15] was 94.1%. For the same compound, the cell viability [16] was 87.6%, the cell viability [17] was 92.5% and the cell viability [18] was 81.5%. The cell viability [19] was 90%, the cell viability [20] was 81.6% and the cell viability [21] was 3.89%. It also gave a cell viability [22] of 1.48%, a cell viability [23] of 83.6% and a cell viability [24] of 78.6%. It also gave a cell viability [25] of 80.5%, a cell viability [26] of 84.1% and a cell viability [27] of 87.4%. The cell viability [28] was 89.2%, the cell viability [29] was 83.6% and the cell viability [30] was 79.2%. For the same compound, the cell viability [31] was 79.3%, the cell viability [32] was 1.24% and the cell viability [33] was 0.948%.

`CCCCN(CCCC)C(=O)CN1C[C@H](c2ccc3c(c2)OCO3)[C@@H](C(=O)O)[C@@H]1c1ccc(OC)cc1` showed a cell viability [1] of 112%, a cell viability [2] of 111% and a cell viability [3] of 113%. For the same compound, the cell viability [4] was 70.2%, the cell viability [5] was 116% and the cell viability [6] was 114%. It also gave a cell viability [7] of 107%, a cell viability [8] of 114% and a cell viability [9] of 106%. It also gave a cell viability [10] of 104%, a cell viability [11] of 88.4% and a cell viability [12] of 107%. For the same compound, the cell viability [13] was 122%, the cell viability [14] was 115% and the cell viability [15] was 61.9%. It also gave a cell viability [16] of 112%, a cell viability [17] of 122% and a cell viability [18] of 123%. The cell viability [19] was 118%, the cell viability [20] was 36.1% and the cell viability [21] was 105%. The cell viability [22] was 99.9%.

With `Cc1cc(O)c2c(c1)C(=O)c1cc(O)cc(O)c1C2=O` the cell viability [1] was 99.9%, the cell viability [2] was 107% and the cell viability [3] was 99.6%. It also gave a cell viability [4] of 104%, a cell viability [5] of 110% and a cell viability [6] of 103%. The cell viability [7] was 110%, the cell viability [8] was 105% and the cell viability [9] was 95.3%. The cell viability [10] was 94.2%, the cell viability [11] was 100% and the cell viability [12] was 100%. For the same compound, the cell viability [13] was 99.2%, the cell viability [14] was 107% and the cell viability [15] was 96.4%. For the same compound, the cell viability [16] was 108%, the cell viability [17] was 104% and the cell viability [18] was 99.1%. It also gave a cell viability [19] of 103%, a cell viability [20] of 102% and a cell viability [21] of 90.6%. For the same compound, the cell viability [22] was 86.6%, the cell viability [23] was 91.5% and the cell viability [24] was 92.2%. The cell viability [25] was 88.8%, the cell viability [26] was 97.7% and the cell viability [27] was 99.8%. The cell viability [28] was 97.1%, the cell viability [29] was 96.4% and the cell viability [30] was 90.8%. It also gave a cell viability [31] of 97%, a cell viability [32] of 94% and a cell viability [33] of 84.8%.

For `Cc1cn(CCN2CCN(c3ccccc3-c3cc(C#N)cc(C(=O)NCCCN4CCCC4)c3)CC2)c2ccccc12`, the cell viability [1] was 110%, the cell viability [2] was 109% and the cell viability [3] was 106%. It also gave a cell viability [4] of 104%, a cell viability [5] of 109% and a cell viability [6] of 115%. It also gave a cell viability [7] of 119%, a cell viability [8] of 120% and a cell viability [9] of 91.2%. For the same compound, the cell viability [10] was 8.78%, the cell viability [11] was 6.19% and the cell viability [12] was 107%. For the same compound, the cell viability [13] was 107%, the cell viability [14] was 103% and the cell viability [15] was 115%. For the same compound, the cell viability [16] was 118%, the cell viability [17] was 118% and the cell viability [18] was 124%. It also gave a cell viability [19] of 103%, a cell viability [20] of 90.8% and a cell viability [21] of 23.2%. The cell viability [22] was 15.6%, the cell viability [23] was 118% and the cell viability [24] was 119%. For the same compound, the cell viability [25] was 117%, the cell viability [26] was 117% and the cell viability [27] was 124%. For the same compound, the cell viability [28] was 126%, the cell viability [29] was 128% and the cell viability [30] was 111%. It also gave a cell viability [31] of 93%, a cell viability [32] of 26.9% and a cell viability [33] of 19.9%.
